From ChEMBL document CHEMBL2150891, “Compounds and Their Use as BACE Inhibitors: Patent Highlight” (ACS Med Chem Lett, 2012)

Assays:
Beta-secretase 1 [1] = molecular target: T1, Beta-secretase 1 (Homo sapiens, UniProt P56817); assay: Inhibition of BACE by TR-FRET assay
Beta-secretase 1 [2] = molecular target: T1, Beta-secretase 1; assay: Inhibition of BACE by secreted APPbeta release assay

T1 sequence (P56817 whole entry): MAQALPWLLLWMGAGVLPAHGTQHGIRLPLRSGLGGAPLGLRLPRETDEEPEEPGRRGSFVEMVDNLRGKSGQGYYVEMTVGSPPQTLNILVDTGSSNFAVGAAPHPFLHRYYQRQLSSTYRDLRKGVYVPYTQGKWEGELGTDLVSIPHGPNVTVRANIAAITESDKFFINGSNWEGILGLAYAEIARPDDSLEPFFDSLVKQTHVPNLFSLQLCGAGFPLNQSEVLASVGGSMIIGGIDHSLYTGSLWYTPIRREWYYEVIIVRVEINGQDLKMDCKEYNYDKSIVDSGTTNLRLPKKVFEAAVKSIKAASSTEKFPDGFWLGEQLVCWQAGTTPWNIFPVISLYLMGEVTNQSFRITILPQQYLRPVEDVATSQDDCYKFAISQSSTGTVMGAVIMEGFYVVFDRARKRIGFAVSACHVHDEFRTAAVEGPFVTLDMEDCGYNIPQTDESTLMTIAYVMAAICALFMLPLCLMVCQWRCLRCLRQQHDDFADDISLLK

An IC50 (Beta-secretase 1 [1]) of 1.4 nM and an IC50 (Beta-secretase 1 [2]) of 2.2 nM were found for CC#Cc1cncc(-c2ccc3c(c2)C2(N=C(C)C(N)=N2)C2(CCC(OC)CC2)O3)c1 (configuration not stated) in this work.
